Consider four compounds from patent publication US20060100431A1, “Biologically active compounds” (Amura Therapeutics Limited, priority 2002, published 2006).

One may read the Ki as the equilibrium dissociation constant of an inhibitor or competing ligand from its target. Lower therefore signals tighter binding.

Some results are limits rather than exact numbers.

This experiment deals with T1, human cathepsin K (Homo sapiens, UniProt P43235).
T1 construct: Dr. Boris Turk (Josef Stefan Institute, Ljubljana, Slovenia)
T1 sequence (P43235 115-329): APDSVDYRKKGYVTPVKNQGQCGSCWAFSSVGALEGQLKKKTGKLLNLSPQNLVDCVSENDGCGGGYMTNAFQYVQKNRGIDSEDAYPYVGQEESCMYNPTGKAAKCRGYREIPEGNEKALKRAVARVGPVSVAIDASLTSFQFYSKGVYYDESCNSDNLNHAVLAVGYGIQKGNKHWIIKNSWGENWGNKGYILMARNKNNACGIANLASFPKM
Briefly: Cathepsin K peptidase activity assay (Ki). It is filed as biochemical. As to conditions: Table 5. The procedure:
Unless otherwise stated, all general chemicals and biochemicals were purchased from either the Sigma Chemical Company, Poole, Dorset, U.K or from Fisher Scientific UK, Loughborough, Leicestershire, U.K. Absorbance assays were carried out in flat-bottomed 96-well plates (Spectra; Greiner Bio-One Ltd., Stonehouse, Gloucestershire, U.K.) using a SpectraMax PLUS384 plate reader (Molecular Devices, Crawley, U.K.). […] Fluorescence assays were monitored using a SpectraMax Gemini fluorescence plate reader (Molecular Devices). For substrates employing either a 7-amino-4-methylcoumarin (AMC) or a 7-amino-4-trifluoromethylcoumarin (AFC) fluorophore, assays were monitored at an excitation wavelength of 365 nm and an emission wavelength of 450 nm and the fluorescence plate reader calibrated with AMC. For substrates employing a 3-amino-benzoyl (Abz) fluorophore, assays were monitored at an excitation wavelength of 310 nm and an emission wavelength of 445 nm; the fluorescence plate reader calibrated with 3-amino-benzamide (Fluka). Unless otherwise indicated, all the peptidase substrates were purchased from Bachem UK, St Helens, Merseyside, UK. […] Hydroxyethylpiperazine ethanesulfonate (HEPES), tris-hydroxylmethyl aminomethane (tris) base, bis-tris-propane and all the biological detergents (e.g. CHAPS, zwittergents, etc.) were purchased from CN Biosciences UK, Beeston, Nottinghamshire, U.K. Glycerol was purchased from Amersham Pharmacia Biotech, Little Chalfont, Buckinghamshire, U.K. Stock solutions of substrate or inhibitor were made up to 10 mM in 100% dimethylsulfoxide (DMSO) (Rathburns, Glasgow, U.K.) and diluted as appropriately required. In all cases the DMSO concentration in the assays was maintained at less than 1% (vol./vol.).
Enzyme was added as required to initiate the reaction and the activity, as judged by the change in fluorescence upon conversion of substrate to product, was monitored over time. All assays were carried out at 25±1° C.
Bovine cathepsin S, human cathepsin L, human cathepsin H and human cathepsin B were obtained from CN Biosciences. Recombinant human cathepsin S, human cathepsin K and human cathepsin X were obtained from Dr. Boris Turk (Josef Stefan Institute, Ljubljana, Slovenia). Unless otherwise stated, all peptidase activity assays were carried out in 10 mM bis-tris-propane (BTP), pH 6.5 containing 1 mM EDTA, 5 mM 2-mercaptoethanol and 1 mM CaCl2.
The apparent inhibition constant (Ki) for each compound was determined on the basis that inhibition was reversible and occurred by a pure-competitive mechanism. […] [formula]
[formula] Ki^app=Ki(1+[So]/KM^app) (4)
Curves were fitted by non-linear regression analysis (Prism) using a fixed value for the enzyme concentration.
`CC(C)(C)c1ccc(C(=O)N[C@@H](Cc2ccc(O)cc2)C(=O)N2CC[C@@H]3[C@H]2C(=O)CN3C(=O)c2ccccc2)cc1` [Example 346, (3aR,6aS)-N-[(1S)-2-(4-Benzoyl-6-oxo-hexahydro-pyrrolo[3,2-b]pyrrol-1-yl)-1-(4-hydroxybenzyl)-2-oxo-ethyl]-4-tert-butyl-benzamide] yielded a Ki greater than 8 µM.

With `O=C(N[C@@H](Cc1ccc(O)cc1)C(=O)N1CC[C@@H]2[C@H]1C(=O)CN2C(=O)c1ccccc1)c1cccc2ccccc12` [Example 296, (3aR,6aS)-Naphthalene-1-carboxylic acid [(1S)-2-(4-benzoyl-6-oxo-hexahydro-pyrrolo[3,2-b]pyrrole-1-yl)-1-(4-hydroxybenzyl)-2-oxo-ethyl]-amide], the Ki was greater than 50 µM. On to `CC(C)C[C@H](NC(=O)c1ccc(-c2cccs2)cc1)C(=O)N1CC[C@@H]2[C@H]1C(=O)CN2C(=O)c1ccccc1` [Example 2, (3aR,6aS)-N-[(1S)-1-(4-Benzoyl-6-oxo-hexahydro-pyrrolo[3,2-b]pyrrole-1-carbonyl)-3-methyl-butyl]-4-thiophen-2-yl-benzamide], for which the Ki was less than 0.01 µM.

The compound `O=C(N[C@@H](CC1CCCCC1)C(=O)N1CC[C@@H]2[C@H]1C(=O)CN2C(=O)c1ccccc1)c1ccsc1` [Example 250, (3aR,6aS)-Thiophene-3-carboxylic acid [(1S)-2-(4-benzoyl-6-oxo-hexahydro-pyrrolo[3,2-b]pyrrole-1-yl)-1-cyclohexylmethyl-2-oxo-ethyl]-amide] gave a Ki greater than 5 µM.
